{"source": "patent US20260262643A1", "about": "“HERBICIDAL BENZOXAZINES” (FMC CORPORATION, priority 2022, published 2026)", "key": {"soybean": {"system": "soybean", "assay": "Test A postemergence", "format": "in vivo, Glycine max", "conditions": "Glycine max, post-emergence, 240 h, postemergence, 10 days, 0 to 100 scale (0 no effect, 100 complete control)", "outline": "(§1)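 Weeds and crops in loam–sand blend were sprayed preemergence onto soil or postemergence at 2–10 cm (one- to two-leaf stage). Test chemicals were in a non-phytotoxic solvent with surfactant. After 10 days in the greenhouse, injury was rated visually against untreated controls on a 0 (no effect) to 100 (complete control) scale.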"}, "barnyardgrass": {"system": "barnyardgrass", "assay": "Test B flooded paddy test", "format": "in vivo, Echinochloa crus-galli", "conditions": "Echinochloa crus-galli, 312 h, 250 g ai/ha, Flood, 13 days, 0 to 100 scale (0 no effect, 100 complete control); read-out: Plant response rating, Barnyardgrass", "outline": "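Each species was raised to the 2-leaf stage. At treatment, each pot received floodwater 3 cm deep, with the chemical delivered into the water. Greenhouse holding followed for 13 days, then percent control was estimated visually versus untreated pots.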"}, "corn [1]": {"system": "corn", "assay": "Test A postemergence", "format": "in vivo, Zea mays", "conditions": "Zea mays, post-emergence, 240 h, postemergence, 10 days, 0 to 100 scale (0 no effect, 100 complete control)", "outline": "as §1"}, "ragweed [2]": {"system": "ragweed", "assay": "Test A preemergence", "format": "in vivo, Ambrosia artemisiifolia", "conditions": "Ambrosia artemisiifolia, pre-emergence, 240 h, visual injury after 10 days, 0 to 100 scale, 0 is no effect, 100 is complete control, read-out: Plant response rating, Ragweed", "outline": "as §1"}, "foxtail, giant [3]": {"system": "foxtail, giant", "assay": "Test A postemergence", "format": "in vivo, Setaria faberi", "conditions": "Setaria faberi, post-emergence, 240 h, postemergence, 10 days, 0 to 100 scale (0 no effect, 100 complete control)", "outline": "as §1"}, "ragweed [4]": {"system": "ragweed", "assay": "Test A postemergence", "format": "in vivo, Ambrosia artemisiifolia", "conditions": "Ambrosia artemisiifolia, post-emergence, 240 h, postemergence, 10 days, 0 to 100 scale (0 no effect, 100 complete control)", "outline": "as §1"}, "wheat": {"system": "wheat", "assay": "Test A preemergence", "format": "in vivo, Triticum aestivum", "conditions": "Triticum aestivum, pre-emergence, 240 h, visual injury after 10 days, 0 to 100 scale, 0 is no effect, 100 is complete control, read-out: Plant response rating, Wheat", "outline": "as §1"}, "pigweed, palmer [5]": {"system": "pigweed, palmer", "assay": "Test A postemergence", "format": "in vivo, Amaranthus palmeri", "conditions": "Amaranthus palmeri, post-emergence, 240 h, postemergence, 10 days, 0 to 100 scale (0 no effect, 100 complete control)", "outline": "as §1"}, "kochia": {"system": "kochia", "assay": "Test A postemergence", "format": "in vivo, Bassia scoparia", "conditions": "Bassia scoparia, post-emergence, 240 h, postemergence, 10 days, 0 to 100 scale (0 no effect, 100 complete control)", "outline": "as §1"}, "foxtail, giant [6]": {"system": "foxtail, giant", "assay": "Test A preemergence", "format": "in vivo, Setaria faberi", "conditions": "Setaria faberi, pre-emergence, 240 h, visual injury after 10 days, 0 to 100 scale, 0 is no effect, 100 is complete control, read-out: Plant response rating, Foxtail, Giant", "outline": "as §1"}, "pigweed, palmer [7]": {"system": "pigweed, palmer", "assay": "Test A preemergence", "format": "in vivo, Amaranthus palmeri", "conditions": "Amaranthus palmeri, pre-emergence, 240 h, visual injury after 10 days, 0 to 100 scale, 0 is no effect, 100 is complete control, read-out: Plant response rating, Pigweed, Palmer", "outline": "as §1"}, "corn [8]": {"system": "corn", "assay": "Test A preemergence", "format": "in vivo, Zea mays", "conditions": "Zea mays, pre-emergence, 240 h, visual injury after 10 days, 0 to 100 scale, 0 is no effect, 100 is complete control", "outline": "as §1"}, "ryegrass, Italian": {"system": "ryegrass, Italian", "assay": "Test A preemergence", "format": "in vivo, Lolium multiflorum", "conditions": "Lolium multiflorum, pre-emergence, 240 h, visual injury after 10 days, 0 to 100 scale, 0 is no effect, 100 is complete control, read-out: Plant response rating, Ryegrass, Italian", "outline": "as §1"}, "horseweed": {"system": "horseweed", "assay": "Test A postemergence", "format": "in vivo, Erigeron canadensis", "conditions": "Erigeron canadensis, post-emergence, 240 h, postemergence, 10 days, 0 to 100 scale (0 no effect, 100 complete control)", "outline": "as §1"}}, "data": [{"molecule": "Cc1cccc2c1O[C@@H](C)CN2C(=O)c1cccc(-n2cn[nH]c2=O)c1", "note": "[Compound 122, 4-[3-[[(2S)-2,3-Dihydro-2,8-dimethyl-4H-1,4-benzoxazin-4-yl]carbonyl]phenyl]-2,4-dihydro-3H-1,2,4-triazol-3-one]", "values": [{"measurement": "plant injury at 125 g/ha", "setting": "soybean; 125 g ai/ha, read-out: Soybean plant response rating", "value": 50, "unit": "%"}, {"measurement": "plant injury at 500 g/ha", "setting": "soybean; 500 g ai/ha, visual injury, read-out: Plant response rating, Soybean", "value": 90, "unit": "%"}, {"measurement": "pest or weed control at 250 g/ha", "setting": "barnyardgrass", "value": 0, "unit": "%"}, {"measurement": "plant injury at 125 g/ha", "setting": "corn [1]; 125 g ai/ha, read-out: Corn plant response rating", "value": 10, "unit": "%"}, {"measurement": "Corn plant response rating (crop injury, 0 = no effect, 100 = complete kill) at 500 g/ha", "setting": "corn [1]; 500 g ai/ha, visual injury", "value": 60, "unit": "%"}, {"measurement": "pest or weed control at 125 g/ha", "setting": "ragweed [2]; 125 g ai/ha", "value": 0, "unit": "%"}, {"measurement": "pest or weed control at 500 g/ha", "setting": "ragweed [2]; 500 g ai/ha", "value": 0, "unit": "%"}, {"measurement": "pest or weed control at 125 g/ha", "setting": "foxtail, giant [3]; 125 g ai/ha, read-out: Foxtail, Giant plant response rating", "value": 20, "unit": "%"}, {"measurement": "pest or weed control at 500 g/ha", "setting": "foxtail, giant [3]; 500 g ai/ha, visual injury, read-out: Plant response rating, Foxtail, Giant", "value": 50, "unit": "%"}, {"measurement": "pest or weed control at 125 g/ha", "setting": "ragweed [4]; 125 g ai/ha, read-out: Ragweed plant response rating", "value": 0, "unit": "%"}, {"measurement": "pest or weed control at 500 g/ha", "setting": "ragweed [4]; 500 g ai/ha, visual injury, read-out: Plant response rating, Ragweed", "value": 0, "unit": "%"}, {"measurement": "plant injury at 125 g/ha", "setting": "wheat; 125 g ai/ha", "value": 0, "unit": "%"}, {"measurement": "plant injury at 500 g/ha", "setting": "wheat; 500 g ai/ha", "value": 0, "unit": "%"}, {"measurement": "pest or weed control at 125 g/ha", "setting": "pigweed, palmer [5]; 125 g ai/ha, read-out: Pigweed, Palmer plant response rating", "value": 20, "unit": "%"}, {"measurement": "pest or weed control at 500 g/ha", "setting": "pigweed, palmer [5]; 500 g ai/ha, visual injury, read-out: Plant response rating, Pigweed, Palmer", "value": 20, "unit": "%"}, {"measurement": "pest or weed control at 125 g/ha", "setting": "kochia; 125 g ai/ha, read-out: Kochia plant response rating", "value": 30, "unit": "%"}, {"measurement": "pest or weed control at 500 g/ha", "setting": "kochia; 500 g ai/ha, visual injury, read-out: Plant response rating, Kochia", "value": 50, "unit": "%"}, {"measurement": "pest or weed control at 125 g/ha", "setting": "foxtail, giant [6]; 125 g ai/ha", "value": 20, "unit": "%"}, {"measurement": "pest or weed control at 500 g/ha", "setting": "foxtail, giant [6]; 500 g ai/ha", "value": 90, "unit": "%"}, {"measurement": "pest or weed control at 125 g/ha", "setting": "pigweed, palmer [7]; 125 g ai/ha", "value": 0, "unit": "%"}, {"measurement": "pest or weed control at 500 g/ha", "setting": "pigweed, palmer [7]; 500 g ai/ha", "value": 30, "unit": "%"}, {"measurement": "Corn plant response rating (crop injury, 0 = no effect, 100 = complete kill) at 125 g/ha", "setting": "corn [8]; 125 g ai/ha", "value": 0, "unit": "%"}, {"measurement": "Corn plant response rating (crop injury, 0 = no effect, 100 = complete kill) at 500 g/ha", "setting": "corn [8]; 500 g ai/ha", "value": 10, "unit": "%"}, {"measurement": "pest or weed control at 125 g/ha", "setting": "ryegrass, Italian; 125 g ai/ha", "value": 20, "unit": "%"}, {"measurement": "pest or weed control at 500 g/ha", "setting": "ryegrass, Italian; 500 g ai/ha", "value": 70, "unit": "%"}, {"measurement": "pest or weed control at 125 g/ha", "setting": "horseweed; 125 g ai/ha, read-out: Horseweed plant response rating", "value": 0, "unit": "%"}, {"measurement": "pest or weed control at 500 g/ha", "setting": "horseweed; 500 g ai/ha, visual injury, read-out: Plant response rating, Horseweed", "value": 0, "unit": "%"}]}]}
